Results on nine compounds are retold here after US20060166872A1, “Fp receptor antagonists or pgf2 alpha antagonists for treating menorrhagia” (priority 2002, published 2006).

In one test the test system is FP receptor. As to conditions: cited from earlier work.
The test system of a further test is human endometrium. The test is described as follows: Total inositol phosphate (InsP) assay in human endometrium. It counts as cell-based. The protocol:
(§1) PGF2α stimulation of total InsP production was as described (21). Briefly, tissue samples or Ishikawa cells were incubated with inositol free DMEM containing 1% dialyzed heat-inactivated FCS and 0.5 μCi/well myo-[^3H]inositol (Amersham Pharmacia Biotech) for 48 hours. Medium was removed, and cells washed with 1 ml buffer (140 mM NaCl, 20 mM HEPES, 4 mM KCl, 8 mM glucose, 1 mM MgCl2, 1 mM CaCl2, 1 mg/ml bovine serum albumin) containing 10 mM LiCl. Cells were then incubated for 1 hour at 37° C. in 1 ml buffer with or without inhibitors. Following incubation agonist was added at the required concentration and cells incubated for 1 hour. Reactions were terminated by the removal of agonist and the addition of 500 μl ice cold 10 mM formic acid, which was incubated for 30 minutes at 4° C. Total [^3H] inositol phosphates was separated from the formic acid cell extracts on AG 1-X8 anion exchange resin (Bio-Rad) and eluted with a 1 M ammonium formate/0.1 M formic acid solution. The associated radioactivity was determined by liquid scintillation counting and plotted relative to protein concentrations determined using the modified Lowry method.

The subject of the next test is HT-29. As to conditions: HT-29 human colon adenocarcinoma cell line; cited from earlier work.
Another test concerns HCT-8. As to conditions: HCT-8 human colon adenocarcinoma cell line; cited from earlier work.
Test [1] relates to Ishikawa cells. In words: PGF2α-induced ERK phosphorylation in Ishikawa cells. It counts as cell-based, human. As to conditions: 100 nM, 10 min. The protocol: PGF2α-induced ERK phosphorylation in Ishikawa cells. PGF2α 100 nM was incubated for 10 and 30 min. U73122 2 μM was pre-incubated for 60 min before treatment with PGF2α.
Test [2] deals with Ishikawa cells. The test is described as follows: Proliferation assay, BrdU incorporation ELISA. It counts as cell-based, human. As to conditions: for basal proliferation (BrdU incorporation): no PGF2α. The protocol: Proliferation of Ishikawa cells was determined using a BrdU incorporation ELISA (Roche Diagnostics GmbH, Mannheim, Germany). Briefly, Ishikawa cells were seeded at 5×10^3 cells per well in a 96-well plate and allowed to adhere overnight. Cells were next starved for 24 hr with indomethacin 1.5 μg/ml before 24 h PGF2α treatment (1 nM-1 μM) in serum-free medium containing indomethacin. Inhibitors were added to cells for 60 min before PGF2α with the control well receiving the same concentration of vehicle. Following 24 h treatment, cells were labelled with BrdU for 4 h, then fixed and assayed for BrdU incorporation using standard immunohistochemical techniques. Results were plotted as percentages of untreated cells.
Background: Incorporation of labelled thymidine or its analogues reports DNA synthesis.

The test system of test [3] is Ishikawa cells. In words: Total inositol phosphate (InsP) assay in Ishikawa cells. It counts as cell-based, human. As to conditions: PGF2α 100 nM. The protocol:
as §1

The target of test [4] is T1, prostaglandin receptor DP (Homo sapiens, UniProt Q13258).
T1 sequence (Q13258 1-359): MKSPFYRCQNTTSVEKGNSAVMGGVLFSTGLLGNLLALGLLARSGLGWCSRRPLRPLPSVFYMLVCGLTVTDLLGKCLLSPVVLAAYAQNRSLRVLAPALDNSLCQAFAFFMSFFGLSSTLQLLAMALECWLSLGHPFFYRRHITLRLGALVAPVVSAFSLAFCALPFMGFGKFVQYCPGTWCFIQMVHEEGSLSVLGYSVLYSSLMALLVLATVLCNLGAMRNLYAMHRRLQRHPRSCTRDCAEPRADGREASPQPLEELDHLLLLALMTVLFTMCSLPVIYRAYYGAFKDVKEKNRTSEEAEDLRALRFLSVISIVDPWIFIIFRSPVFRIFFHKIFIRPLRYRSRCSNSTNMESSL
As to conditions: 10 μM; cited from earlier work.

The test system of test [5] is prostaglandin receptor TP. As to conditions: 10 μM; cited from earlier work.
The target in test [6] is prostaglandin receptor EP4 (Homo sapiens, UniProt P35408). As to conditions: 10 μM; cited from earlier work.
Sequence of prostaglandin receptor EP4 (P35408 whole entry): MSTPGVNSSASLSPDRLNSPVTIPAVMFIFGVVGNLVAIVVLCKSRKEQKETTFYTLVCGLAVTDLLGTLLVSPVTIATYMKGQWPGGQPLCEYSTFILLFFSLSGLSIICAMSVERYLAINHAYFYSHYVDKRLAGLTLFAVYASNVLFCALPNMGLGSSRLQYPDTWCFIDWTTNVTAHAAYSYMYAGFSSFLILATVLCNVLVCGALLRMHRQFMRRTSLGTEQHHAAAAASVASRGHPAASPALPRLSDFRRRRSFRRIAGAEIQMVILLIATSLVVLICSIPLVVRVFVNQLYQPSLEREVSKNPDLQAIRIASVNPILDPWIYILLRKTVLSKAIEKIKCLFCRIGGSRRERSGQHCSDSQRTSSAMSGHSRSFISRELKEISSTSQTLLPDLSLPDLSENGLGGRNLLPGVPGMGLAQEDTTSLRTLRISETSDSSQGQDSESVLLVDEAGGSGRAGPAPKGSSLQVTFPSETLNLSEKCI
Test [7] addresses prostaglandin receptor EP2 (Homo sapiens, UniProt P43116). As to conditions: 10 μM; cited from earlier work.
In a further test the target is T2, PGES (Homo sapiens, UniProt O14684).
T2 sequence (O14684 1-152): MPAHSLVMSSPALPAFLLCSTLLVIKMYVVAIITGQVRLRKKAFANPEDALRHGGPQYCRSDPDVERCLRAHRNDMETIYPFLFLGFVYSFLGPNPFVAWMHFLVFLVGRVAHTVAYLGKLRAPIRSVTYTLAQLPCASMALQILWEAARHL
As to conditions: read-out: IC50 for inhibition of PGES activity; cited from earlier work.

A word on the IC50: it is the concentration that gives 50% inhibition.

“Also recorded” adds a separate entry of the source.

Sequence of prostaglandin receptor EP2 (P43116 whole entry): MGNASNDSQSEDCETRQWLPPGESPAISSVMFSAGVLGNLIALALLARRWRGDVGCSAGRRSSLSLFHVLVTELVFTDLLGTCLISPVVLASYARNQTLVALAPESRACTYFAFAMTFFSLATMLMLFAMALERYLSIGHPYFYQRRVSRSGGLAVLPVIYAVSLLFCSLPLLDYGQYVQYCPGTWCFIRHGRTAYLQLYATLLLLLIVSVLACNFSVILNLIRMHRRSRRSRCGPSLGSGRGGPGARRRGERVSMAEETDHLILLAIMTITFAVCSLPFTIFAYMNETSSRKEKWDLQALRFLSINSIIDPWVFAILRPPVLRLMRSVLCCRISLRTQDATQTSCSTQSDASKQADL

Regarding `CCCCC(F)[C@H](O)/C=C/[C@H]1CC[C@H](O)[C@@H]1C/C=C\CCCC(=O)O` (stereo partly drawn) [AL-3138, 11-deoxy-16-fluoro PGF2α], in the test on FP receptor, the “FP (PGF2α) receptor agonist activity, in words” value is recorded as “weak partial agonist; also recorded: partial agonist of low efficacy” and the “FP (PGF2α) receptor antagonist activity, in words” value was “highly selective antagonist”.
Turning to `Cc1ccc(S(=O)(=O)NC(=O)NN2CCCCCC2)cc1` [tolazamide], the “FP (PGF2α) receptor antagonist activity, in words” value in the test with FP receptor was “very weak antagonists”.
On to prostaglandin F2α [PGF2α], for which, in the test with human endometrium, the “concentration giving maximal InsP mobilisation” value worked out at 100 nM. The “total InsP production following treatment” value with human endometrium is “concentration-dependent increase”. For the same compound, the proliferation result in the test on HT-29 and with HCT-8 was “lack of proliferation” each time. In the test on Ishikawa cells [1], the “increase in phosphorylated ERK intensity compared to native ERK” value is recorded as 6.6±0.7 fold. In addition, the “BrdU incorporation (percentage of untreated cells)” value in the test on Ishikawa cells [2] (PGF2α 100 nM (maximal), 24 h, Ishikawa cells) came out at 136.3±7.48%. Besides, the “maximum total InsP” value in the test with Ishikawa cells [3] stood at 29 cpm/mg protein.
Regarding `COc1cccc(-c2cc(=O)c3ccccc3o2)c1N` [PD98059], the “basal proliferation (BrdU incorporation)” value with Ishikawa cells [2] (PD98059 50 μM pre-treatment) amounted to 84.0±5.8%.
For the compound `COc1ccc2c(c1)CC[C@@H]1[C@@H]2CC[C@]2(C)[C@@H](NCCCCCCN3C(=O)C=CC3=O)CC[C@@H]12` [U73122], the “effect on PGF2α-induced InsP mobilisation” value in the test on human endometrium (pre-treatment with U73122 2 μM, PGF2α 100 nM) is listed as “inhibited”. In addition, the “basal proliferation (BrdU incorporation)” value in the test with Ishikawa cells [2] (U73122 2 μM pre-incubation) was found to be 93.9±1.9%.
With `O=C(O)CCC/C=C\C[C@@H]1[C@@H](/C=C/[C@H](O)C2Cc3ccccc3C2)[C@@H](F)C[C@@H]1O` [AL-8810, (5Z, 13E)-(9S,11S,15R)-9,15-dihydroxy-11-fluoro-15-(2-indanyl)-16, 17, 18, 19, 20-pentanor-5,13-prostadienoic acid], the “inhibition of functional responses of DP receptor” value in [4] was “not to significantly inhibit”. Further, the “inhibition of functional responses of TP receptor” value in test [5] was “not to significantly inhibit”. Further, in the test with FP receptor, the “FP (PGF2α) receptor agonist activity, in words” value is listed as “weak partial agonist” and the “FP (PGF2α) receptor antagonist activity, in words” value is “highly selective antagonist; also recorded: micromolar potency”. In addition, the “inhibition of functional responses of EP4 receptor” value in test [6] is on record as “not to significantly inhibit”. For the same compound, the “inhibition of functional responses of EP2 receptor” value in [7] is listed as “not to significantly inhibit”.
For the compound `CCCCC/C=C\C\C=C/C=C/C=C/[C@@H](SC[C@H](NC(=O)CC[C@H](N)C(=O)O)C(=O)NCC(=O)O)[C@@H](O)CCCC(=O)O` [leukotriene C4], at PGES, the 50% inhibitory concentration (IC50) is 5 µM.
As to `CSc1ccc(/C=C2/C(C)=C(CC(=O)O)c3cc(F)ccc32)cc1` [sulindac sulphide], the half-inhibitory concentration (IC50) on PGES was 80 µM.
Regarding `CCCCNC(=O)NS(=O)(=O)c1ccc(C)cc1` [tolbutamide], the “FP (PGF2α) receptor antagonist activity, in words” value in the test on FP receptor is listed as “very weak antagonists”.
